From ChEMBL document CHEMBL5137015, “Design, synthesis, and evaluation of a novel series of mono-indolylbenzoquinones derivatives for the potential treatment of breast cancer” (Eur J Med Chem, 2022)
Active and inactive are the calls of the source. The calls are words filed in the database; no cut-off is given here.

Assays:
MDA-MB-231 [1] = assay: Induction of apoptosis in human MDA-MB-231 cells assessed as increase in caspase 9 expression at 1 uM incubated for 24 hrs by Western blot analysis; format: functional, cell-based
[2] = Toxicity in Balb/c mouse implanted with mouse 4T1 cells assessed as lung lesions at 50 mg/kg administered intratumorally every four days for 14 days in the presence of liquid cyanoacrylate by H&E staining based histopathological analysis; format: organism-based; conditions: in vivo, other, 336 h, route it(Intratumoral), time 14 day
[3] = Toxicity in Balb/c mouse implanted with mouse 4T1 cells assessed as liver lesions at 50 mg/kg administered intratumorally every four days for 14 days by H&E staining based histopathological analysis; format: organism-based; conditions: in vivo, other, 336 h, route it(Intratumoral), time 14 day
4T1 [4] = assay: Antitumor activity against mouse 4T1 cells xenografted in Balb/c mouse assessed as disordered nuclei at 200 mg/kg administered topically over the tumor surface every two days for 14 days in the presence of cyanoacrylate; format: functional, organism-based; conditions: route top, time 14.0 day
[5] = Drug metabolism in Balb/c mouse tumor implanted with mouse 4T1 cells assessed as dechlorination of parent compound causing metabolite formation by LC-MS analysis; format: ADME, tissue-based, Neoplasm
MDA-MB-231 [6] = assay: Induction of apoptosis in human MDA-MB-231 cells assessed as increase in catalase level at 100 nM incubated for 48 hrs; format: functional, cell-based
MDA-MB-231 [7] = assay: Induction of apoptosis in human MDA-MB-231 cells assessed as nuclear chromatin condensation at 1 uM incubated for 24 hrs by transmission electron microscopic analysis; format: functional, cell-based
MDA-MB-231 [8] = assay: Induction of apoptosis in human MDA-MB-231 cells assessed as deep cytoplasm at 1 uM incubated for 24 hrs by transmission electron microscopic analysis; format: functional, cell-based
Mus musculus = assay: Protection of Balb/c mouse spleen implanted with mouse 4T1 cells at 50 mg/kg administered intratumorally every four days for 14 days in the presence of liquid cyanoacrylate; format: functional, organism-based; conditions: route it(Intratumoral), time 14.0 day
MDA-MB-231 [9] = assay: Induction of apoptosis in human MDA-MB-231 cells assessed as late apoptotic cells by measuring red fluorescence at 0.01 to 1 uM by PI staining based fluorescence microscopic analysis; format: functional, cell-based; conditions: dose 0.01-1 µM
4T1 [10] = assay: Antitumor activity against mouse 4T1 cells xenografted in Balb/c mouse assessed as tumor growth inhibition at 200 mg/kg administered topically over the tumor surface every two days for 14 days in the presence of cyanoacrylate relative to control; format: functional; conditions: 4T1, 336 h, route top, time 14 day, read-out: TGI
MDA-MB-231 [11] = assay: Induction of apoptosis in human MDA-MB-231 cells assessed as increase in p53 protein expression at 1 uM incubated for 24 hrs by Western blot analysis; format: functional, cell-based
[12] = Toxicity in Balb/c mouse implanted with mouse 4T1 cells assessed as liver lesions at 50 mg/kg administered intratumorally every four days for 14 days in the presence of liquid cyanoacrylate by H&E staining based histopathological analysis; format: organism-based; conditions: in vivo, other, 336 h, route it(Intratumoral), time 14 day
[13] = Drug metabolism in Balb/c mouse spleen implanted with mouse 4T1 cells assessed as dechlorination of parent compound causing metabolite formation by LC-MS analysis; format: ADME, tissue-based
HeLa = assay: Antiproliferative activity against human HeLa cells assessed as inhibition of cell growth by MTT assay; format: functional, cell-based
4T1 [14] = assay: Antitumor activity against mouse 4T1 cells implanted in Balb/c mouse assessed as nuclei disappearance at 50 mg/kg administered intratumorally every four days for 14 days in the presence of liquid cyanoacrylate; format: functional, organism-based; conditions: route it(Intratumoral), time 14.0 day
MDA-MB-231 [15] = assay: Induction of apoptosis in human MDA-MB-231 cells assessed as increase in caspase 3 expression at 1 uM incubated for 24 hrs by Western blot analysis; format: functional, cell-based
4T1 [16] = assay: Antitumor activity aginst mouse 4T1 cells implanted in Balb/c mouse assessed as nuclei shrinkage at 50 mg/kg administered intratumorally every four days for 14 days; format: functional, organism-based; conditions: route it(Intratumoral), time 14.0 day
[17] = Toxicity in Balb/c mouse implanted with mouse 4T1 cells assessed as lung lesions at 50 mg/kg administered intratumorally every four days for 14 days by H&E staining based histopathological analysis; format: organism-based; conditions: in vivo, other, 336 h, route it(Intratumoral), time 14 day
[18] = Toxicity in Balb/c mouse implanted with mouse 4T1 cells assessed as heart lesions at 50 mg/kg administered intratumorally every four days for 14 days in the presence of liquid cyanoacrylate by H&E staining based histopathological analysis; format: organism-based; conditions: in vivo, other, 336 h, route it(Intratumoral), time 14 day
4T1 [19] = assay: Antitumor activity aginst mouse 4T1 cells implanted in Balb/c mouse assessed as nuclei disappearance at 50 mg/kg administered intratumorally every four days for 14 days; format: functional, organism-based; conditions: route it(Intratumoral), time 14.0 day
[20] = Acute toxicity in mouse assessed as lethal dose measured over 14 days; conditions: in vivo, 336 h, time 14 day
[21] = Acute toxicity in mouse assessed as death rate ratio at 600 mg/kg, ip measured over 14 days; format: organism-based; conditions: in vivo, 336 h, time 14 day
4T1 [22] = assay: Antitumor activity against mouse 4T1 cells xenografted in Balb/c mouse assessed as TUNEL positive cells at 200 mg/kg administered topically over the tumor surface every two days for 14 days in the presence of cyanoacrylate by TUNEL staining analysis (reference value: 21.78%); format: functional; conditions: route top, time 14 day
MDA-MB-231 [23] = assay: Induction of apoptosis in human MDA-MB-231 cells assessed as increase in cytochrome C expression at 1 uM incubated for 24 hrs by Western blot analysis; format: functional, cell-based
MDA-MB-231 [24] = assay: Induction of apoptosis in human MDA-MB-231 cells assessed as increase in p53 level at 100 nM incubated for 48 hrs; format: functional, cell-based
[25] = Toxicity in Balb/c mouse xenografted with mouse 4T1 cells assessed as heart lesions at 200 mg/kg administered topically over the tumor surface every two days for 14 days in the presence of cyanoacrylate by H&E staining based histopathological analysis; format: organism-based; conditions: in vivo, topical_or_ocular, 336 h, route top, time 14 day
MDA-MB-231 [26] = assay: Induction of cell cycle arrest in human MDA-MB-231 cells assessed as decrease in G1 phase cells at 10 uM incubated for 24 hrs by PI staining based flow cytometric analysis (reference value: 74.44%); format: functional; design: scale not given: the % may be the effect or the level left
MDA-MB-231 [27] = assay: Induction of apoptosis in human MDA-MB-231 cells assessed as increase in pro-caspase 3 level at 100 nM incubated for 48 hrs; format: functional, cell-based
[28] = Toxicity in Balb/c mouse xenografted with mouse 4T1 cells assessed as spleen lesions at 200 mg/kg administered topically over the tumor surface every two days for 14 days in the presence of cyanoacrylate by H&E staining based histopathological analysis; format: organism-based; conditions: in vivo, topical_or_ocular, 336 h, route top, time 14 day
[29] = Toxicity in Balb/c mouse implanted with mouse 4T1 cells assessed as lung lesions at 50 mg/kg, ip administered every two days for 14 days by H&E staining based histopathological analysis; format: organism-based; conditions: in vivo, 336 h, time 14 day
MDA-MB-231 [30] = assay: Induction of apoptosis in human MDA-MB-231 cells assessed as late apoptotic cells by measuring green fluorescence at 0.01 to 1 uM by Annexin V-FITC staining based fluorescence microscopic analysis; format: functional, cell-based; conditions: dose 0.01-1 µM
[31] = Toxicity in Balb/c mouse implanted with mouse 4T1 cells assessed as spleen lesions at 50 mg/kg administered intratumorally every four days for 14 days in the presence of liquid cyanoacrylate by H&E staining based histopathological analysis; format: organism-based; conditions: in vivo, other, 336 h, route it(Intratumoral), time 14 day
4T1 [32] = assay: Antitumor activity against mouse 4T1 cells xenografted in Balb/c mouse assessed as tumor growth inhibition at 50 mg/kg, ip administered every two days for 14 days; format: functional; design: scale not given: the % may be the effect or the level left; conditions: time 14 day
[33] = Acute toxicity in mouse assessed as death rate ratio at 378 mg/kg, ip measured over 14 days; format: organism-based; conditions: in vivo, 336 h, time 14 day
MDA-MB-231 [34] = assay: Induction of apoptosis in human MDA-MB-231 cells assessed as increase in caspase 9 expression at 0.5 to 3 times of IC50 concentration by Western blot analysis; format: functional, cell-based

Compound: Cc1[nH]c2ccccc2c1C1=C(Cl)C(=O)C(Cl)=C(N2CCOCC2)C1=O
- Activity (MDA-MB-231 [1]): Active
- Activity [2]: Non-Toxic
- Activity [3]: Non-Toxic
- Activity (4T1 [4]): Active
- Drug metabolism [5]: Metabolite_Detected
- Activity (MDA-MB-231 [6]): Active
- Activity (MDA-MB-231 [7]): Active
- Activity (MDA-MB-231 [8]): Active
- Activity (Mus musculus): Active
- Activity (MDA-MB-231 [9]): Active
- inhibition in vivo at 200 mg/kg (4T1 [10]): 38%
- Activity (MDA-MB-231 [11]): Active
- Activity [12]: Non-Toxic
- Drug metabolism [13]: Metabolite_Detected
- IC50 (HeLa): 320 nM
- Activity (4T1 [14]): Active
- Activity (MDA-MB-231 [15]): Active
- Activity (4T1 [16]): Active
- Activity [17]: Non-Toxic
- Activity [18]: Non-Toxic
- Activity (4T1 [19]): Active
- LD50 [20]: 374 mg/kg
- Ratio [21]: 1
- Activity (4T1 [22]): 64.71%
- Activity (MDA-MB-231 [23]): Active
- Activity (MDA-MB-231 [24]): Active
- Activity [25]: Non-Toxic
- Activity (MDA-MB-231 [26]): 16.84%
- Activity (MDA-MB-231 [27]): Active
- Activity [28]: Non-Toxic
- Activity [29]: Non-Toxic
- Activity (MDA-MB-231 [30]): Active
- Activity [31]: Non-Toxic
- Activity (4T1 [32]): 36%
- Ratio [33]: 0.5
- Activity (MDA-MB-231 [34]): Active
